{"source": "ChEMBL document CHEMBL1151797", "about": "“Discovery of inhibitors of the channel-activating protease prostasin (CAP1/PRSS8) utilizing structure-based design” (Bioorg Med Chem Lett, 2008)"}
{"biological_target": "Prostasin (Homo sapiens, UniProt Q16651)", "sequence (Q16651 45-322 limits assumed, other chains not shown)": "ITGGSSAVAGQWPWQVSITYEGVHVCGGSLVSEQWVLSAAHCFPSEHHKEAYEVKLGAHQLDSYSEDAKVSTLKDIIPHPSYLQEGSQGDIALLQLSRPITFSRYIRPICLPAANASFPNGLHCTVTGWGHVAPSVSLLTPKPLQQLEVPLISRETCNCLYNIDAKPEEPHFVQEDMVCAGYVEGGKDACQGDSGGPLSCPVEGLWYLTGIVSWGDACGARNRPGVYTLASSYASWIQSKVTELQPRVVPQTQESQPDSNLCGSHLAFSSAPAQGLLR", "test": "Binding affinity to human prostasin", "units": {"Ki": "nM"}}
{"compound": "NCCCC[C@H](NC(=O)[C@@H]1CCCN1C(=O)[C@@H](CCc1ccccc1)NC(=O)OCc1ccccc1)C(=O)c1nc2ccccc2o1", "Ki": 1400}
{"compound": "NCCCC[C@H](NC(=O)[C@@H]1[C@@H](c2ccccc2)CCN1C(=O)[C@@H](CCc1ccccc1)NC(=O)OCc1ccccc1)C(=O)c1nc2ccccc2o1", "Ki": 267}
{"compound": "NCCCC[C@H](NC(=O)[C@@H]1C[C@@H](OCc2cccc(C(F)(F)F)c2)CN1C(=O)[C@@H](CCc1ccccc1)NC(=O)OCc1ccccc1)C(=O)c1nc2ccccc2o1", "Ki": 41}
{"compound": "NCCCC[C@H](NC(=O)[C@H](CCc1ccccc1)NC(=O)OCc1ccccc1)C(=O)c1nc2ccccc2o1", "Ki": "> 100000"}
{"compound": "CN(C)C(=O)O[C@@H]1C[C@@H](C(=O)N[C@@H](CCCCN)C(=O)c2nc3ccccc3o2)N(C(=O)[C@@H](CCc2ccccc2)NC(=O)OCc2ccccc2)C1", "Ki": 1550}
{"compound": "NCCCC[C@H](NC(=O)[C@@H]1C[C@@H](O)CN1C(=O)[C@@H](CCc1ccccc1)NC(=O)OCc1ccccc1)C(=O)c1nc2ccccc2o1", "Ki": 1040}
{"compound": "NCCCC[C@H](NC(=O)[C@@H]1C[C@@H](OC(=O)N2CCCCC2)CN1C(=O)[C@@H](CCc1ccccc1)NC(=O)OCc1ccccc1)C(=O)c1nc2ccccc2o1", "Ki": 29}
{"compound": "NCCCC[C@H](NC(=O)[C@@H]1C[C@@H](OCc2ccc(F)cc2)CN1C(=O)[C@@H](CCc1ccccc1)NC(=O)OCc1ccccc1)C(=O)c1nc2ccccc2o1", "Ki": 27}
{"compound": "NCCCC[C@H](NC(=O)[C@@H]1C[C@@H](OCC2CCCCC2)CN1C(=O)[C@@H](CCc1ccccc1)NC(=O)OCc1ccccc1)C(=O)c1nc2ccccc2o1", "Ki": 19}
{"compound": "NCCCC[C@H](NC(=O)[C@H](CCc1ccccc1)NC(=O)[C@H](Cc1cnc[nH]1)NC(=O)OCc1ccccc1)C(=O)c1nc2ccccc2o1", "Ki": 2100}
{"compound": "C[C@H]1CCN(C(=O)[C@@H](CCc2ccccc2)NC(=O)OCc2ccccc2)[C@@H]1C(=O)N[C@@H](CCCCN)C(=O)c1nc2ccccc2o1", "Ki": 49}
{"compound": "CC(C)C[C@H](NC(=O)[C@H](CCCCN)NC(=O)OCc1ccccc1)C(=O)N[C@@H](CCCCN)C(=O)c1nc2ccccc2o1", "Ki": 15200}
{"compound": "NCCCC[C@H](NC(=O)[C@@H]1C[C@@H](OC(=O)N2CCOCC2)CN1C(=O)[C@@H](CCc1ccccc1)NC(=O)OCc1ccccc1)C(=O)c1nc2ccccc2o1", "Ki": 510}
{"compound": "CC(C)C[C@H](NC(=O)OCc1ccccc1)C(=O)N[C@@H](CCCCN)C(=O)c1nc2ccccc2o1", "Ki": "> 100000"}
{"compound": "NCCCC[C@H](NC(=O)[C@@H]1C[C@@H](OC(=O)NCc2ccccc2)CN1C(=O)[C@@H](CCc1ccccc1)NC(=O)OCc1ccccc1)C(=O)c1nc2ccccc2o1", "Ki": 60}
{"compound": "NCCCC[C@H](NC(=O)[C@@H]1C[C@@H](OC(=O)Nc2ccccc2)CN1C(=O)[C@@H](CCc1ccccc1)NC(=O)OCc1ccccc1)C(=O)c1nc2ccccc2o1", "Ki": 130}
{"compound": "CS(=O)(=O)c1ccc(CNC(=O)O[C@@H]2C[C@@H](C(=O)N[C@@H](CCCCN)C(=O)c3nc4ccccc4o3)N(C(=O)[C@@H](CCc3ccccc3)NC(=O)OCc3ccccc3)C2)cc1", "Ki": 176}
{"compound": "NCCCC[C@H](NC(=O)[C@@H]1C[C@@H](OCc2ccc(Cl)cc2)CN1C(=O)[C@@H](CCc1ccccc1)NC(=O)OCc1ccccc1)C(=O)c1nc2ccccc2o1", "Ki": 12}
{"compound": "NCCCC[C@H](NC(=O)[C@@H]1C[C@@H](OCc2ccc(C(F)(F)F)cc2)CN1C(=O)[C@@H](CCc1ccccc1)NC(=O)OCc1ccccc1)C(=O)c1nc2ccccc2o1", "Ki": 28}
{"compound": "NCCCC[C@H](NC(=O)[C@@H]1C[C@@H](OC(=O)N2CCCC2)CN1C(=O)[C@@H](CCc1ccccc1)NC(=O)OCc1ccccc1)C(=O)c1nc2ccccc2o1", "Ki": 101}
{"compound": "NCCCC[C@H](NC(=O)[C@@H]1C[C@@H](OCc2ccccc2)CN1C(=O)[C@@H](CCc1ccccc1)NC(=O)OCc1ccccc1)C(=O)c1nc2ccccc2o1", "Ki": 40}
{"compound": "CC(C)C[C@H](NC(=O)[C@H](Cc1cnc[nH]1)NC(=O)OCc1ccccc1)C(=O)N[C@@H](CCCCN)C(=O)c1nc2ccccc2o1", "Ki": 5720}
{"compound": "NCCCC[C@H](NC(=O)[C@@H]1C[C@@H](OCC2CCCC2)CN1C(=O)[C@@H](CCc1ccccc1)NC(=O)OCc1ccccc1)C(=O)c1nc2ccccc2o1", "Ki": 65}
{"compound": "Cc1ccc(CO[C@@H]2C[C@@H](C(=O)N[C@@H](CCCCN)C(=O)c3nc4ccccc4o3)N(C(=O)[C@@H](CCc3ccccc3)NC(=O)OCc3ccccc3)C2)cc1", "Ki": 45}
